Test results taken from PubChem BioAssay AID248 (DTP/NCI, 2004).
Where “and” joins values, the source holds several entries; their conditions need not be identical. Equal values may be shown once. Inconclusive results and toxic doses are left out.

System: L1210 leukemia ip in BDF1 mice, survival T/C
Experiment: NCI In Vivo Anticancer Drug Screen. Data for tumor model L1210 Leukemia (intraperitoneal) in B6D2F1 (BDF1) mice
Details: endpoint: mean survival time, higher = longer survival
How it was run: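 Mice bearing the transplanted tumor received compound or vehicle. Survival of the treated group was divided by that of the vehicle-treated control group to give the ratio.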

[1] = dose: 100.0 mg/kg/injection, schedule: Q01DX009 (ip), vehicle: Klucel (hydroxypropylcellulose) (HPC)

## N/C(=N\N=C\c1ccc2c(c1)OCO2)N/N=C\c1ccc2c(c1)OCO2
dose: 15.0 mg/kg/injection, schedule: Q01DX Z (ip), vehicle: carboxymethylcellulose (CMC)
  T/C: 95 % of control
dose: 30.0 mg/kg/injection, schedule: Q01DX Z (ip), vehicle: carboxymethylcellulose (CMC)
  T/C: 101 % of control
dose: 60.0 mg/kg/injection, schedule: Q01DX Z (ip), vehicle: carboxymethylcellulose (CMC)
  T/C: 97 % of control
dose: 120.0 mg/kg/injection, schedule: Q01DX Z (ip), vehicle: carboxymethylcellulose (CMC)
  T/C: 94 % of control
dose: 120.0 mg/kg/injection, schedule: Q01DX Z (oral), vehicle: carboxymethylcellulose (CMC)
  T/C: 95 % of control
dose: 240.0 mg/kg/injection, schedule: Q01DX Z (oral), vehicle: carboxymethylcellulose (CMC)
  T/C: 103 % of control
dose: 480.0 mg/kg/injection, schedule: Q01DX Z (oral), vehicle: carboxymethylcellulose (CMC)
  T/C: 101 % of control
dose: 960.0 mg/kg/injection, schedule: Q01DX Z (oral), vehicle: carboxymethylcellulose (CMC)
  T/C: 97 % of control

## Cc1ccc(C(=O)OCC(=O)c2ccc(-c3ccccc3)cc2)cc1
dose: 100.0 mg/kg/injection, schedule: Q01DX001 (ip), vehicle: other
  T/C: 89 % of control
dose: 200.0 mg/kg/injection, schedule: Q01DX001 (ip), vehicle: other
  T/C: 90 % of control

## CC(=O)Nc1ncc(/C=C/c2ccc([N+](=O)[O-])cc2)c(NC(C)=O)n1
dose: 100.0 mg/kg/injection, schedule: Q01DX001 (ip), vehicle: Klucel (hydroxypropylcellulose) (HPC)
  T/C: 100 % of control
dose: 200.0 mg/kg/injection, schedule: Q01DX001 (ip), vehicle: Klucel (hydroxypropylcellulose) (HPC)
  T/C: 87 % of control
dose: 400.0 mg/kg/injection, schedule: Q01DX001 (ip), vehicle: Klucel (hydroxypropylcellulose) (HPC)
  T/C: 87 % of control

## CN(C)CC1CCC(CN(C)C)C1=O (stereo not drawn)
dose: 9.38 mg/kg/injection, schedule: Q01DX001 (ip), vehicle: other
  T/C: 106 % of control
dose: 9.38 mg/kg/injection, schedule: Q01DX001 (ip), vehicle: saline
  T/C: 104 % of control
dose: 18.75 mg/kg/injection, schedule: Q01DX001 (ip), vehicle: other
  T/C: 101 % of control
dose: 18.75 mg/kg/injection, schedule: Q01DX001 (ip), vehicle: saline
  T/C: 103 % of control
dose: 37.5 mg/kg/injection, schedule: Q01DX001 (ip), vehicle: other
  T/C: 115 % of control

## NC(N)=NCCCS(=O)(=O)Nc1ccc(Nc2c3ccccc3nc3cc([N+](=O)[O-])ccc23)cc1
dose: 3.0 mg/kg/injection, schedule: Q01DX009 (ip), vehicle: water
  T/C: 186 % of control
dose: 6.0 mg/kg/injection, schedule: Q01DX009 (ip), vehicle: water
  T/C: 160 % of control
dose: 6.25 mg/kg/injection, schedule: Q04DX002 (ip), vehicle: saline with Tween-80
  T/C: 102 % of control
dose: 6.25 mg/kg/injection, schedule: Q04DX003 (ip), vehicle: water
  T/C: 186 % of control
dose: 12.5 mg/kg/injection, schedule: Q04DX002 (ip), vehicle: saline with Tween-80
  T/C: 120 % of control
dose: 25.0 mg/kg/injection, schedule: Q04DX002 (ip), vehicle: saline with Tween-80
  T/C: 124 % of control
dose: 50.0 mg/kg/injection, schedule: Q04DX003 (ip), vehicle: water
  T/C: 161 % of control
dose: 100.0 mg/kg/injection, schedule: Q04DX002 (ip), vehicle: saline with Tween-80
  T/C: 150 % of control
dose: 200.0 mg/kg/injection, schedule: Q04DX002 (ip), vehicle: saline with Tween-80
  T/C: 183 % of control

## CCCCCCCCCCCCNC(=O)c1ccccc1O
dose: 50.0 mg/kg/injection, schedule: Q01DX009 (ip), vehicle: other
  T/C: 96 % of control
dose: 100.0 mg/kg/injection, schedule: Q01DX009 (ip), vehicle: other
  T/C: 91 % of control
dose: 400.0 mg/kg/injection, schedule: Q01DX009 (ip), vehicle: other
  T/C: 101 % of control

## CS(=O)c1cc2c(cc1[N+](=O)[O-])C(=O)c1ccccc1-2 (stereo not drawn)
dose: 20.0 mg/kg/injection, schedule: Q01DX009 (ip), vehicle: Klucel (hydroxypropylcellulose) (HPC)
  T/C: 107 % of control
dose: 40.0 mg/kg/injection, schedule: Q01DX009 (ip), vehicle: Klucel (hydroxypropylcellulose) (HPC)
  T/C: 117 % of control
dose: 50.0 mg/kg/injection, schedule: Q04DX003 (ip), vehicle: Klucel (hydroxypropylcellulose) (HPC)
  T/C: 97 % of control
[1]
  T/C: 95 % of control
dose: 100.0 mg/kg/injection, schedule: Q04DX003 (ip), vehicle: Klucel (hydroxypropylcellulose) (HPC)
  T/C: 93 % of control

## COc1cc(N=Nc2ccccc2)ccc1N
dose: 100.0 mg/kg/injection, schedule: Q01DX001 (ip), vehicle: saline
  T/C: 95 % of control
dose: 100.0 mg/kg/injection, schedule: Q04DX003 (ip), vehicle: acetone
  T/C: 100 % of control and 111 % of control
dose: 200.0 mg/kg/injection, schedule: Q01DX001 (ip), vehicle: saline
  T/C: 112 % of control
dose: 200.0 mg/kg/injection, schedule: Q04DX003 (ip), vehicle: acetone
  T/C: 95 % of control
dose: 400.0 mg/kg/injection, schedule: Q01DX001 (ip), vehicle: saline
  T/C: 96 % of control
dose: 400.0 mg/kg/injection, schedule: Q04DX003 (ip), vehicle: acetone
  T/C: 96 % of control and 91 % of control

## CCOC(=O)C(c1ccccc1)(c1ccccc1)c1ccccc1
dose: 6.25 mg/kg/injection, schedule: Q01DX009 (ip), vehicle: Klucel (hydroxypropylcellulose) (HPC)
  T/C: 90 % of control
dose: 12.5 mg/kg/injection, schedule: Q01DX009 (ip), vehicle: Klucel (hydroxypropylcellulose) (HPC)
  T/C: 92 % of control
dose: 25.0 mg/kg/injection, schedule: Q01DX009 (ip), vehicle: Klucel (hydroxypropylcellulose) (HPC)
  T/C: 95 % of control

## O=C(c1ccccc1)c1nc2ccccc2[nH]1
dose: 100.0 mg/kg/injection, schedule: Q04DX002 (ip), vehicle: Klucel (hydroxypropylcellulose) (HPC)
  T/C: 108 % of control
dose: 200.0 mg/kg/injection, schedule: Q04DX002 (ip), vehicle: Klucel (hydroxypropylcellulose) (HPC)
  T/C: 101 % of control
dose: 400.0 mg/kg/injection, schedule: Q04DX002 (ip), vehicle: Klucel (hydroxypropylcellulose) (HPC)
  T/C: 104 % of control

## COc1cccc(/C=C/c2cnc3ccccc3n2)c1OC
dose: 50.0 mg/kg/injection, schedule: Q01DX009 (ip), vehicle: Klucel (hydroxypropylcellulose) (HPC)
  T/C: 104 % of control
[1]
  T/C: 92 % of control

## CCN(CC)C(C)CNc1cc(C)nc(/N=C(\N)Nc2ccc(Cl)c(Cl)c2)n1 (stereo not drawn)
dose: 2.35 mg/kg/injection, schedule: Q01DX009 (ip), vehicle: Klucel (hydroxypropylcellulose) (HPC)
  T/C: 110 % of control
dose: 4.69 mg/kg/injection, schedule: Q01DX009 (ip), vehicle: Klucel (hydroxypropylcellulose) (HPC)
  T/C: 100 % of control
dose: 9.38 mg/kg/injection, schedule: Q01DX009 (ip), vehicle: Klucel (hydroxypropylcellulose) (HPC)
  T/C: 98 % of control and 100 % of control
dose: 37.5 mg/kg/injection, schedule: Q01DX009 (ip), vehicle: Klucel (hydroxypropylcellulose) (HPC)
  T/C: 100 % of control
dose: 75.0 mg/kg/injection, schedule: Q01DX001 (ip), vehicle: other
  T/C: 97 % of control

## CCS(=O)c1c(Cl)c(Cl)c(Cl)c(Cl)c1Cl (stereo not drawn)
[1]
  T/C: 102 % of control
dose: 200.0 mg/kg/injection, schedule: Q01DX009 (ip), vehicle: Klucel (hydroxypropylcellulose) (HPC)
  T/C: 108 % of control
dose: 400.0 mg/kg/injection, schedule: Q01DX009 (ip), vehicle: Klucel (hydroxypropylcellulose) (HPC)
  T/C: 95 % of control

## CCOC(=O)C1N=C(c2ccccc2)OC1c1ccccc1 (stereo not drawn)
dose: 50.0 mg/kg/injection, schedule: Q01DX009 (ip), vehicle: saline with Tween-80
  T/C: 94 % of control
dose: 100.0 mg/kg/injection, schedule: Q01DX009 (ip), vehicle: saline with Tween-80
  T/C: 94 % of control
dose: 200.0 mg/kg/injection, schedule: Q01DX009 (ip), vehicle: saline with Tween-80
  T/C: 102 % of control

## CCCCCCC(C)NCC(O)COc1cccc(C)c1 (stereo not drawn)
dose: 12.5 mg/kg/injection, schedule: Q01DX009 (ip), vehicle: saline with Tween-80
  T/C: 94 % of control
dose: 25.0 mg/kg/injection, schedule: Q01DX009 (ip), vehicle: saline with Tween-80
  T/C: 97 % of control

## NC(=S)NN=C1CCCCCCC1
dose: 8.4 mg/kg/injection, schedule: Q01DX Z (ip), vehicle: methylcellulose (MC)
  T/C: 98 % of control
dose: 23.0 mg/kg/injection, schedule: Q01DX Z (ip), vehicle: methylcellulose (MC)
  T/C: 101 % of control
dose: 39.0 mg/kg/injection, schedule: Q01DX Z (ip), vehicle: methylcellulose (MC)
  T/C: 111 % of control

## O=C1CC2(O)CCC1(c1ccccc1)CC2
dose: 75.0 mg/kg/injection, schedule: Q04DX002 (ip), vehicle: Klucel (hydroxypropylcellulose) (HPC)
  T/C: 92 % of control
dose: 150.0 mg/kg/injection, schedule: Q04DX002 (ip), vehicle: Klucel (hydroxypropylcellulose) (HPC)
  T/C: 100 % of control
dose: 300.0 mg/kg/injection, schedule: Q04DX002 (ip), vehicle: Klucel (hydroxypropylcellulose) (HPC)
  T/C: 95 % of control

## COc1ccc(-c2c(O)c3cccc(-c4ccccc4)c3oc2=O)cc1
dose: 25.0 mg/kg/injection, schedule: Q04DX003 (ip), vehicle: saline with Tween-80
  T/C: 116 % of control
dose: 50.0 mg/kg/injection, schedule: Q04DX003 (ip), vehicle: saline with Tween-80
  T/C: 96 % of control
dose: 100.0 mg/kg/injection, schedule: Q04DX003 (ip), vehicle: saline with Tween-80
  T/C: 101 % of control
dose: 100.0 mg/kg/injection, schedule: Q04DX003 (ip), vehicle: saline
  T/C: 95 % of control
dose: 200.0 mg/kg/injection, schedule: Q04DX003 (ip), vehicle: saline
  T/C: 93 % of control
